Laboratory results from US8871815B2, “Therapeutic compounds” (Signature Therapeutics, Inc., priority 2007, dated 2014).
Where two headings read alike, the source gives them in different places. Marks after values point to notes of the source that are not given here.

Experiments:
male Sprague-Dawley rats [1] = assay: Anesthetic effects in rats, bolus IV, Loss of Righting Reflex (LORR); format: in vivo, rat; settings: 49 mg/kg bolus IV
rats = assay: Separate rat study, bolus IV, 1% in cremaphor, sleep time; format: in vivo; settings: for Sleep Time (duration of anesthesia): 7 mg/kg bolus IV
Beagle dogs [2] = assay: Hemodynamic effects (blood pressure) in beagle dogs, bolus IV; format: in vivo, dog; settings: 4 min after administration
Protocol: The study was a crossover design. […] The MTD was defined as the dose that reduced mean arterial blood pressure (MAP) by 50% or to less than 50 millimeters of mercury (mmHg or mm Hg). All animals received supplemental oxygen and, if needed, ventilatory support after 4 min of apnea.
Hemodynamic data, such as mean arterial pressure (MAP), were recorded at baseline, 1, 2, 4, 8, 15, 20 and 30 min. Compound 1 was administered at 5, 10, 15 and 30 mg/kg to 3, 6, 6 and 3 dogs respectively. […] Data were analyzed with a 2-way ANOVA followed by t-test with Bonferroni correction for multiple comparisons.

male Sprague-Dawley rats [3] = assay: Anesthetic effects in rats, bolus IV, Loss of Righting Reflex (LORR); format: in vivo, rat
Protocol: (§1) Also measured was minimum dose to achieve LORR and maximum tolerated dose (MTD).
(§2) The ranges of doses studied were 1.9, 2.3, 3.0, 7.0, 13.7, 14.0 and 15.2 mg/kg for Compound 1 and 3.5, 4.0, 7.0 and 14.0 mg/kg for […].

[4] = as above; format: in vivo, rat; settings: male, Sprague-Dawley, rat, in vivo; bolus IV, rats; read-out: MTD (maximum tolerated dose)
Protocol: as §1, §2

Beagle dogs [5] = tested on: Beagle dogs
ferrets = assay: Anti-emetic activity in ferrets (morphine sulfate induced emesis); settings: 6 ferrets
Protocol: Male descented ferrets weighing 1.0-1.5 kg with vascular access ports in the jugular vein were housed on a 12/12-hour light/dark cycle under controlled temperature, with food and water provided ad libitum. On each study day, food was presented to ferrets one hour prior to dosing. Immediately prior to dosing, food and water were removed. A 1% Compound 1 formulation, prepared as described in Example 5 and formulated in accordance with Example 4, or […] was administered by IV infusion to the ferrets; see Wynn R L et al, 1993, Eur J Pharmacol 241, 42 re […] administration in ferrets. After administration of Compound 1 or […], animals were placed in clean, transparent cages (with lids) and left unrestrained for a 45-min observation period by an observer blinded to the specific treatment administered.
Episodes of retching and/or vomiting were considered separate episodes when the interval between retches and/or vomits exceeded 5 sec.
After termination of the infusion, 0.5 mg/kg morphine sulfate was administered subcutaneously and the ferrets were monitored for 45 min as described above. Six additional ferrets were administered subcutaneously 0.5 mg/kg morphine sulfate only.

[6] = Aqueous phase concentration in lipid emulsion (ultrafiltration, LC/MS/MS); format: physicochemical; settings: 1% lipid emulsion formulation
Protocol: The concentration of Compound 1 in the aqueous phase (aqueous phase concentration) of a lipid emulsion formulation was determined.
A one percent (1%) Compound 1 formulation was formulated in accordance with Example 4, Compound 1 being prepared as described in Example 5.

pigs [7] = assay: in vivo; settings: pig, in vivo, iv
Protocol: (§3) Experiments were performed on commercial farm-bred swine of either sex (mean weight 33.6 kg). Anesthesia was induced with isoflurane. Intravascular access was obtained from an ear vein. Each pig was intubated and mechanically ventilated. Tissue oxygenation was monitored using continuous pulse oximetry placed on the tongue. Ventilation was monitored using an inspired/expired gas analyzer that measured oxygen, carbon dioxide, and potent inhalation agent concentrations. Ventilator settings were adjusted as needed to maintain steady state.
(§4) ECG was monitored throughout the study. Arterial blood pressure was monitored through the cannulated left femoral artery. MAP, systolic and diastolic arterial pressures and heart rate were collected every 5 seconds. An internal jugular vein was cannulated with a pulmonary artery catheter for thermodilution estimates of cardiac output and blood temperature. Body temperature was maintained at 37° C. Instrumentation for EEG monitoring was accomplished using an adhesive electrode array over the fronto-occipital regions (Aspect Medical. Norwood, Mass., USA).
(§5) Metabolic and hemodynamic parameters for each group were compared at multiple time points using an unpaired two-tailed Student t test. To account for multiple comparisons and maintain the probability of a type I error below 0.05, P values less than 0.025 were considered significant.

in vivo = settings: both, pig, in vivo, iv
Protocol: as §3, §4, §5

[8] = tested on: alpha2, NMDA, PCP, benzodiazepine or opioid receptors; assay: Cerep Diversity Profile: other receptors; format: binding; settings: tested at 10 μM
[9] = target: T1, phosphodiesterase 2 (PDE2) (Homo sapiens, UniProt O00408); assay: Cerep Diversity Profile: enzymes, PDE2; format: biochemical; settings: tested at 10 μM; read-out: inhibition of control binding, PDE2
T1 construct: Cerep, Inc

pigs [10] = assay: Hemodynamic effects, arterial blood gas and serum chemistry in pigs, IV infusion; format: in vivo, pig; settings: IV infusion, pigs (Compound 1 0.384, propofol 0.750 mg/kg/min)
Protocol: Anesthesia was induced with isoflurane. Intravascular access was obtained from an ear vein. Each pig was intubated and mechanically ventilated.
ECG was monitored throughout the study. […] Body temperature was maintained at 37° C.
Arterial blood gas samples from pigs infused with Compound 1 were taken and analyzed for blood gas and serum chemistry values; mean values are reported in Table 4.

mongrel dogs = assay: Anesthetic and hemodynamic effects in chronically instrumented mongrel dogs, total intravenous anesthesia; format: in vivo, dog; settings: IV bolus then stepwise IV infusions 0.25-2.0 mg/kg/min
Protocol: Assessments included hemodynamic performance parameters such as blood pressure, heart rate, and cardiac output as well as clinical chemistry parameters and EEG analysis.
General anesthesia was induced in the dogs by IV administration of 7 mg/kg […], and the dogs were tracheally intubated and mechanically ventilated. General anesthesia was maintained using 2.2% end-tidal sevoflurane in oxygen. A thoracotomy was performed at the fifth left intercostal space, and heparin-filled catheters were placed in the proximal descending thoracic aorta (P50 pressure transducer Gould, Oxnard, Calif.), and in the right and left atria to provide IV access. An ultrasonic transit-time flow probe (T108, Transonic Systems, Ithaca, N.Y.) was placed around the ascending thoracic aorta. A […] Doppler flow probe (Model HDP-20-3.5, Triton Surgical Technologies, San Diego, Calif.) was placed around the left anterior descending coronary artery. Six MHz sonomicrometer crystals (Hartley, Houston, Tex.) were implanted in the subendocardium. A high fidelity micromanometer (P7, Konigsberg Instruments, Pasadena, Calif.) was inserted into the left ventricle. […]
The dogs were fasted overnight. […] EEG was recorded continuously during the experiment. Arterial blood gas and chemistry measures included pH, pO2, sO2, pCO2, tCO2, carbonate, potassium, sodium, and base excess, and were measured immediately following blood draws using a blood gas and chemistry analyzer (ABL-505, Radiometer, Copenhagen). […] Following stabilization, baseline measurements of EEG, hemodynamics, ECG, and blood gases were recorded. Blood samples were drawn for PK and clinical chemistry, and pressure volume loops were generated and data recorded.
Following induction, the dogs were tracheally intubated, and mechanically ventilated using 50% oxygen in nitrogen throughout the subsequent drug infusion and recovery periods. […] MAP was monitored continuously, and dosing was discontinued immediately if MAP decreased below 50 mmHg at any time or if the heart rate increased over 200 beats per minute. […]

[11] = morphine sulfate 0.5 mg/kg subcutaneously alone, 45 min observation
[12] = 15 min IV infusion at 1 mg/kg/min, then 0.5 mg/kg morphine sulfate sc, 45 min

T1 sequence (O00408 whole entry): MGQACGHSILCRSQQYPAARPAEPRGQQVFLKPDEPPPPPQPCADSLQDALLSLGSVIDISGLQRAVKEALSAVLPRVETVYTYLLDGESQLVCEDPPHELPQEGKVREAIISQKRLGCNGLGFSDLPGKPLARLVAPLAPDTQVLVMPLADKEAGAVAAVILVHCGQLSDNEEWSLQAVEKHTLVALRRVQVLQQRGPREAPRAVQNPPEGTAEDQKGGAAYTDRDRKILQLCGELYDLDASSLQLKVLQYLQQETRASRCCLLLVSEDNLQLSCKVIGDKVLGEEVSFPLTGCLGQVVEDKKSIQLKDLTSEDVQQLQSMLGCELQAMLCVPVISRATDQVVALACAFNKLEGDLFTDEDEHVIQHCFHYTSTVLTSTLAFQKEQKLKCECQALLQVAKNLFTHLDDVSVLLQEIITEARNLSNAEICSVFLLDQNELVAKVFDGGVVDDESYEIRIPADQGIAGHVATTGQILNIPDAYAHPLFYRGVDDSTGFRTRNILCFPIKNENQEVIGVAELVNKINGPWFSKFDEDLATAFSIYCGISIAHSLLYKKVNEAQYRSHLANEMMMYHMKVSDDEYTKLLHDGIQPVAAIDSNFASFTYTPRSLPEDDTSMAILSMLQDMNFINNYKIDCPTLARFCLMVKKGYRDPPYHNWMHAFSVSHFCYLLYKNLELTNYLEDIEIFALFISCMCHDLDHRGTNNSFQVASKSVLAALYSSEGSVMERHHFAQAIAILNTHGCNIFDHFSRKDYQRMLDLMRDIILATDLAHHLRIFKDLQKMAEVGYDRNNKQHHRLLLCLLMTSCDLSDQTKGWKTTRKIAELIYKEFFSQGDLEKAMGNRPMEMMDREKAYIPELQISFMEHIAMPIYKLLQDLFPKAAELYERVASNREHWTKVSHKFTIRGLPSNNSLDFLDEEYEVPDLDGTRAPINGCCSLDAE

SMILES | Sleep Time (duration of anesthesia) (rats; rats) | MAP % change from baseline (Beagle dogs [2]; 10 mg/kg bolus IV) | MAP % change from baseline (Beagle dogs [2]; 15 mg/kg bolus IV) | MAP % change from baseline (Beagle dogs [2]; 30 mg/kg bolus IV) | HD50 (dose required to cause 50% of the rats to lose righting reflex) (male Sprague-Dawley rats [3]; bolus IV, rats) | HD7min (dose required to produce 7 minutes of anesthesia) (male Sprague-Dawley rats [3]; bolus IV, rats) | duration of anesthesia (sleep time) (Beagle dogs [5]; 5 mg/kg bolus IV, dogs) | duration of anesthesia (sleep time) (Beagle dogs [5]; 10 mg/kg bolus IV, dogs) | duration of anesthesia (sleep time) (Beagle dogs [5]; 15 mg/kg bolus IV, dogs) | duration of anesthesia (sleep time) (Beagle dogs [5]; 30 mg/kg bolus IV, dogs) | also measured
CC[C@H](C)c1cccc([C@@H](C)CC)c1O (single isomer, unassigned) [(S,S)] | 6.3 min | +7% | +5% | 0% | 4 mg/kg | 5.2 mg/kg | 8 min | 24 min | 50 min | 50 min | deaths (male Sprague-Dawley rats [1]): One of six rats died; TI (therapeutic index, ratio of MTD to HD7 min) (male Sprague-Dawley rats [3]; bolus IV, rats): 8.1; MTD [4]: 42 mg/kg
CC[C@@H](C)c1cccc([C@@H](C)CC)c1O [(meso), (meso)-2,6-di-sec-butylphenol] | 12.7 min | +5% | +15% | −16% | – | – | 25 min | 36 min | 55 min | 58 min | deaths (rats; 21 mg/kg, rats): One of 6 rats; duration of anesthesia (rats; 21 mg/kg, remaining 5 rats): 34 min; quality of anesthesia (smoothness of induction, muscle tone, involuntary motion) (Beagle dogs [5]; bolus IV, dogs): inferior
CN1CC[C@]23c4c5ccc(O)c4O[C@H]2[C@@H](O)C=C[C@H]3[C@H]1C5.O=S(=O)(O)O [Morphine sulfate] | – | – | – | – | – | – | – | – | – | – | episodes of vomiting (ferrets; [11]): 15; retches (ferrets; [11]): 157
CC(C)c1cccc(C(C)C)c1O [Propofol, 2,6-diisopropylphenol, reference compound] | 7.1 min | −22% | −32% | −66%* | 3.8 mg/kg | 7.0 mg/kg | – | – | – | – | aqueous phase concentration [6]: 6.28 ± 0.41 µg/mL; IV infusion time producing maximal suppression of BIS (pigs [7]): 9.4 ± 1.9 min; AUC (in vivo): 1810 ng·h/mL; effects at alpha2, NMDA, PCP, benzodiazepine or opioid receptors [8]: No significant effects; inhibition at 10 µM [9]: > 20%; retches (ferrets; [12]): 47; vomits (ferrets; [12]): 3; lowest HR measured (pigs [10]): 88±6 bpm; Cardiac output versus baseline (mongrel dogs): significantly reduced from baseline; LORR produced (male Sprague-Dawley rats [3]; 3.5 mg/kg bolus IV, 6 rats): no LORR in 4 of 6 rats; dogs reaching the MTD (MAP reduced by 50% or to less than 50 mmHg) (Beagle dogs [5]; dog, in vivo, iv): Two of 3 dogs
